Structures can show the parent of a compound that is named as a salt.
Assays:
Type in all cases: biochemical
[1] = biological target: T1, recombinant human Lysyl Oxidase-Like 2 (LOXL2) (Homo sapiens, UniProt Q9Y4K0); assay: Amplex Red HRP-coupled amine oxidase assay, recombinant human LOXL2; details: 60 min incubation with enzyme at 37° C., putrescine substrate, read-out: Inhibitory activity (IC50, nM) human LOXL2
T1 construct: purchased R&D systems
T1 sequence (Q9Y4K0 26-774): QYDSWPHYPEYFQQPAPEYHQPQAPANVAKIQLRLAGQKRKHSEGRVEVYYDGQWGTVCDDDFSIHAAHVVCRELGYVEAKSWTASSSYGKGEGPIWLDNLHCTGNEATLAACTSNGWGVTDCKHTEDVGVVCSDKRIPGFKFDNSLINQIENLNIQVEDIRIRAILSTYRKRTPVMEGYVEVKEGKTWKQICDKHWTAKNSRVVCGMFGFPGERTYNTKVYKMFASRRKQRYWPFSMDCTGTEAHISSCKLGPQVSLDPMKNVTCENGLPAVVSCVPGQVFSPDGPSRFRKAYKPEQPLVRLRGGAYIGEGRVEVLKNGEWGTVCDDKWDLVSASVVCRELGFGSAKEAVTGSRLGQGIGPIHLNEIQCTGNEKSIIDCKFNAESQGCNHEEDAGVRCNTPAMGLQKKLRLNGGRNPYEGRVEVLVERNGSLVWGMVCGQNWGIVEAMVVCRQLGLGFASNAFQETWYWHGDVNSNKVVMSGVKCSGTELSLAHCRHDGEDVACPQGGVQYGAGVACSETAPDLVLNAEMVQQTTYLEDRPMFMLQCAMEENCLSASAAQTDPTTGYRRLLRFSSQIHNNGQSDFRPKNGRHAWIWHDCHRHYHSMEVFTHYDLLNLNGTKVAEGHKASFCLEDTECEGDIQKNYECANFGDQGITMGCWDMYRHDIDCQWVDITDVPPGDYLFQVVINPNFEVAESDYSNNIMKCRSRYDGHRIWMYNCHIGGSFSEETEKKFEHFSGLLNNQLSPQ
Procedure, shortened: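 Putrescine substrate (30 mM) in 50 mM sodium phosphate pH 7.4, 37 °C; compounds preincubated 60 min with enzyme, 1% DMSO final, six-point curves. H2O2 detected via 400 μM Amplex Red/2 U/mL HRP, fluorescence (ex 530/em 590 nm) after 1 h; IC50 from four-parameter logistic fit of % signal reduction.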

[2] = biological target: T2, recombinant human DAO (diamine oxidase) (Homo sapiens, UniProt P19801); assay: Amplex Red HRP-coupled amine oxidase assay, recombinant human DAO; details: 1 mM putrescine substrate, read-out: Inhibitory activity (IC50, nM) DAO
T2 construct: purchased R&D systems
T2 sequence (P19801 20-751): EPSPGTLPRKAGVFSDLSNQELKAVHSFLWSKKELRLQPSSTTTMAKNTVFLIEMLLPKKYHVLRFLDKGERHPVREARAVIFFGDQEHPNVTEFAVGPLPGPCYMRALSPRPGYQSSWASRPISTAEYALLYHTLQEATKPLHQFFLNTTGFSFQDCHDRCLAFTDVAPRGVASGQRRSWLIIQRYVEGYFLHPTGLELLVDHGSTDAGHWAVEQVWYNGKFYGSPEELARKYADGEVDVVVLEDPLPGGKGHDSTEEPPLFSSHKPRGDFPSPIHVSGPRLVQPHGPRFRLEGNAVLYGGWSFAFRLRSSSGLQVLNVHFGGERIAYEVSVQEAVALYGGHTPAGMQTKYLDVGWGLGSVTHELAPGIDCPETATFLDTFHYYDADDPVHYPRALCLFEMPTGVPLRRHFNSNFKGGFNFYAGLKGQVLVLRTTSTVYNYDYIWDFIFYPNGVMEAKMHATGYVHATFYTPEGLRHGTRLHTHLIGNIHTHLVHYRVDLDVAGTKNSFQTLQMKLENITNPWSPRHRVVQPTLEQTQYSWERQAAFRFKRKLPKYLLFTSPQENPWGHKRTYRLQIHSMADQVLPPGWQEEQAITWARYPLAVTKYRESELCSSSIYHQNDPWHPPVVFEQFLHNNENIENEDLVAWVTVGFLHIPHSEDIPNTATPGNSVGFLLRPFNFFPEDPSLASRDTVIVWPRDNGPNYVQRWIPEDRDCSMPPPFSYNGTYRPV
Procedure, shortened: (§1)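 Enzyme preincubated 60 min at 37 °C with compound (six-point curve, 1% DMSO final) in 50 mM sodium phosphate pH 7.4, then Amplex Red 400 μM and HRP 2 U/mL added with substrate: MAO-A 0.5 mM tyramine, MAO-B 1 mM benzylamine, DAO 1 mM putrescine. Resorufin fluorescence read after 1 h; IC50 by four-parameter logistic fit.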

[3] = biological target: T3, recombinant human MAO-B (monoamine oxidase-B) (Homo sapiens, UniProt P27338); assay: Amplex Red HRP-coupled amine oxidase assay, recombinant human MAO-B; details: 1 mM benzylamine substrate, read-out: Inhibitory activity (IC50, nM) MAO-B
T3 construct: purchased Sigma-Aldrich
T3 sequence (P27338 1-520): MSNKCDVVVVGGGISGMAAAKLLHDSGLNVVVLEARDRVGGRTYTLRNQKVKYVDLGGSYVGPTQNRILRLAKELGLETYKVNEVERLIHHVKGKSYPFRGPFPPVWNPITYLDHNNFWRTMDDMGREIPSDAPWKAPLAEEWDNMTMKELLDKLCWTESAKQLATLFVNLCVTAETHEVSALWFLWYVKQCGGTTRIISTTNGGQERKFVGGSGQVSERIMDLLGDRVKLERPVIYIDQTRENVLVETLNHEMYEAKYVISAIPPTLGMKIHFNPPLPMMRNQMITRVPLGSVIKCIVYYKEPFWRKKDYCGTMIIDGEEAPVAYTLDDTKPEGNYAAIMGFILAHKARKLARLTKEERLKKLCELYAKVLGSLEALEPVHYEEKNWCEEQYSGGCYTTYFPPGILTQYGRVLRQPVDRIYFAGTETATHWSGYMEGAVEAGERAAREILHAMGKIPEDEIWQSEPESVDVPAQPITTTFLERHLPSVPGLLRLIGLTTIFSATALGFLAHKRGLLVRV
Procedure, shortened: as §1

[4] = biological target: T4, recombinant human MAO-A (monoamine oxidase-A) (Homo sapiens, UniProt P21397); assay: Amplex Red HRP-coupled amine oxidase assay, recombinant human MAO-A; details: 0.5 mM tyramine substrate, read-out: Inhibitory activity (IC50, nM) MAO-A
T4 construct: purchased Sigma-Aldrich
T4 sequence (P21397 1-527): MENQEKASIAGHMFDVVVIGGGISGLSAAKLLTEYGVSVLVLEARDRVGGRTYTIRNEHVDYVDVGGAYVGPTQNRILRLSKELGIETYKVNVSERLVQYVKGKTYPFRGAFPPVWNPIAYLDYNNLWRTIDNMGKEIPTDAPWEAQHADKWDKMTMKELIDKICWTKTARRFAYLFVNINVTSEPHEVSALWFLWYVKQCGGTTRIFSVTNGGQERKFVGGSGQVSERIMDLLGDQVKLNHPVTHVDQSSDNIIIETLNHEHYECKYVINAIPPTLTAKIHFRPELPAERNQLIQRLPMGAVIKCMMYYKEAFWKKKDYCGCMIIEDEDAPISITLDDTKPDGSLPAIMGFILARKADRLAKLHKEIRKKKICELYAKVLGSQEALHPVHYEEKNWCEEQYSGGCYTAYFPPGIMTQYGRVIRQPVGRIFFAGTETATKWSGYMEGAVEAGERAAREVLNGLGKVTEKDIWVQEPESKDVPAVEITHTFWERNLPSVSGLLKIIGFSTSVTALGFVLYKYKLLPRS
Procedure, shortened: as §1

SMILES | IC50 [1] | IC50 [2] | IC50 [3] | IC50 [4]
COC(=O)c1cc(-c2cccc(S(C)(=O)=O)c2)c2ncn(C/C(F)=C/CN)c2c1 [Example 25, methyl (Z)-1-(4-amino-2-fluorobut-2-en-1-yl)-4-(3-(methylsulfonyl)phenyl)-1H-benzo[d]imidazol-6-carboxylate hydrochloride] | 22.7 nM | 1230 nM | > 100000 nM | > 100000 nM
COC(=O)c1cc(-c2cccc(S(=O)(=O)N(C)C)c2)c2nc(C)n(C/C(F)=C/CN)c2c1 [Example 66, methyl (Z)-1-(4-amino-2-fluorobut-2-en-1-yl)-4-(3-(N,N-dimethylsulfamoyl)phenyl)-2-methyl-1H-benzo[d]imidazol-6-carboxylate hydrochloride] | 28 nM | 1610 nM | > 100000 nM | 7890 nM
Cc1nc2c(-c3cccc(S(=O)(=O)N(C)C)c3)cc(C(=O)N(C)C)cc2n1C/C(F)=C/CN [Example 76, (Z)-1-(4-amino-2-fluorobut-2-en-1-yl)-4-(3-(N,N-dimethylsulfamoyl)phenyl)-N,N,2-trimethyl-1H-benzo[d]imidazol-6-carboxamide hydrochloride] | 58 nM | 24600 nM | > 100000 nM | 12400 nM
CS(=O)(=O)c1cccc(-c2cc(C(F)(F)F)cc3c2ncn3C/C(F)=C/CN)c1 [Example 13, (Z)-3-fluoro-4-(4-(3-(methylsulfonyl)phenyl)-6-(trifluoromethyl)-1H-benzo[d]imidazol-1-yl) but-2-en-1-amine hydrochloride] | 104 nM | > 100000 nM | > 100000 nM | > 100000 nM
CNS(=O)(=O)c1cccc(-c2cc(C(=O)OC)cc3c2nc(C)n3C/C(F)=C/CN)c1 [Example 73, methyl (Z)-1-(4-amino-2-fluorobut-2-en-1-yl)-2-methyl-4-(3-(N-methylsulfamoyl)phenyl)-1H-benzo[d]imidazol-6-carboxylate hydrochloride] | 58 nM | 1810 nM | > 100000 nM | 47900 nM
COC(=O)c1cc(-c2ccc(OC)c(S(=O)(=O)N(C)C)c2)c2ncn(C/C(F)=C/CN)c2c1 [Example 21, methyl (Z)-1-(4-amino-2-fluorobut-2-en-1-yl)-4-(3-(N,N-dimethylsulfamoyl)-4-methoxyphenyl)-1H-benzo[d]imidazol-6-carboxylate hydrochloride] | 22.7 nM | 380 nM | > 100000 nM | 12200 nM
COc1ccc(S(=O)(=O)NC2CC2)cc1-c1cccc2c1nnn2C/C(F)=C/CN [Example 108, (Z)-3-(1-(4-amino-2-fluorobut-2-en-1-yl)-1H-benzo[d][1,2,3]triazol-4-yl)-N-cyclopropyl-4-methoxybenzenesulfonamide hydrochloride] | 42 nM | > 100000 nM | > 100000 nM | > 100000 nM
NC/C=C(\F)Cn1cnc2c(-c3cncc(Cl)c3)cc(C(F)(F)F)cc21 [Example 174, (Z)-4-(4-(5-chloropyridin-3-yl)-6-(trifluoromethyl)-1H-benzo[d]imidazol-1-yl)-3-fluoro-but-2-en-1-amine hydrochloride] | 304 nM | 2210 nM | > 100000 nM | 81200 nM
CNS(=O)(=O)c1ccc(OC)c(-c2cc(C#N)cc3c2ncn3C/C(F)=C/CN)c1 [Example 183, (Z)-3-(1-(4-amino-2-fluorobut-2-en-1-yl)-6-cyano-1H-benzo[d]imidazol-4-yl)-4-methoxy-N-methylbenzenesulfonamide hydrochloride] | 35.1 nM | 1820 nM | > 100000 nM | > 100000 nM
COC(=O)c1cc(-c2cccc(S(=O)(=O)N3CCC(F)(F)C3)c2)c2ncn(C/C(F)=C/CN)c2c1 [Example 22, methyl (Z)-1-(4-amino-2-fluorobut-2-en-1-yl)-4-(3-((3,3-difluoropyrrolidine-1-yl)sulfonyl)phenyl)-1H-benzo[d]imidazol-6-carboxylate hydrochloride] | 19.9 nM | 5070 nM | > 100000 nM | 53300 nM

Reference: US12686665B2, “Bicyclic fused ring derivative or salt thereof and pharmaceutical composition comprising same” (YUHAN CORPORATION, priority 2021, dated 2026)
